The values below are quoted from earlier work in patent US6737430B2, “Mutual prodrug of amlodipine and atorvastatin” (Pfizer, Inc., priority 2000, dated 2004).

The subject of data set [1] is smooth muscle cell migration. As to conditions: cited from earlier work.
In data set [2] the test system is calcium channel. Conditions: cited from earlier work.

Turning to `CCOC(=O)C1=C(COCCN)NC(C)=C(C(=O)OC)[C@H]1c1ccccc1Cl` (single isomer, unassigned) [(R) enantiomer, R(−)-amlodipine], the “inhibition of smooth muscle cell migration” value in data set [1] is recorded as “potent inhibitor of smooth muscle cell migration”. Moreover, the “calcium channel blocking activity” value in data set [2] is listed as “little or no calcium channel blocking activity”.
